“Also recorded” adds a separate entry of the source. *1 amine or outer side, *2 acyl side, *3 side chain or, on linkers, in order; H or OH if unused. Where no end group is shown, it is not given here. [ ]: non-standard residue; d: D form. γGlu = O=C(O)[C@H](CCC(=O)[*:2])N[*:1]
What was measured:
gastric mucosal D cells = assay: Somatostatin secretion of cultured fractionated gastric mucosal D cells (somatostatin ELISA); format: cell-based, male SD rat; settings: 90 minutes culture
Experimental: The abdomen of each male SD rat was opened in the midline under anesthesia to remove the stomach. The stomach was ligated at the cardiac region and at the junction between the gastric body and the pylorus, and the pyloric region was excised. After that, the stomach was everted so that the luminal side is exposed outside. To the inside of the stomach, Buffer A containing 2.5 mg/ml protease (Sigma P6911, Protease, From Streptomyces griseus, 5.5 unit/mg solid) was injected to prepare a balloon. The balloon was shaken at 37° C. for 30 minutes in Buffer A for 30 minutes and in Buffer B for 30 minutes×three times. After that, the balloon was stirred three times in Buffer B containing 0.5 mg/ml DNase, the detached cells were centrifuged and then suspended in Buffer C. After the cell suspension had been filtered with a filter, cells were fractionated and collected with an elutriator manufactured by Hitachi, Ltd.
Repeated fractionation was conducted using an elutriator in accordance with Example 3 to collect D cells with high purity. After centrifugation, the cells were suspended in a cell culture medium (D-MEM/F-12 containing 10% FBS) and cultured in a CO2 incubator ([…]+5% CO2, 37° C.) (6×10^5 cells/250 μL/well). After 2-day culture, to the D cells washed with PBS was added each of CaSR agonists (20 μM cinacalcet (CCT), 20 μM γ-EVG, 10 mM phenylalanine (Phe), and 10 mM histidine (His)) mixed in a culture buffer (122 mM NaCl, 5 mM KCl, 25 mM NaHCO3, 1.3 mM MgSO4, 2 mM CaCl2, 15 mM HEPES, and 20 mM glucose, pH 7.4), and the cells were cultured for 90 minutes. After that, a culture supernatant was collected, filtered with a filter, and then measured for its somatostatin concentration with a somatostatin ELISA kit (manufactured by Phoenix, Calif.).
The somatostatin secretion was measured in accordance with the method of Example 4. After 2-day culture, to the D cells washed with PBS was added a CaSR agonist (20 μM γ-EVG), sodium glutamate (60 mM MSG), or a mixed solution thereof, mixed in a culture buffer (122 mM NaCl, 5 mM KCl, 25 mM NaHCO3, 1.3 mM MgSO4, 2 mM CaCl2, 15 mM HEPES, and 20 mM glucose, pH 7.4), and the cells were cultured for 90 minutes. After that, the culture supernatant was collected, filtered with a filter, and then the somatostatin concentration was measured by a somatostatin ELISA kit (Phoenix, Calif.).

stomach = assay: Bicarbonate secretion in the stomach of anesthetized rats (ex-vivo chamber, pH-stat method); parameters: species or system male SD rats; settings: 10 mg/kg administered into the gastric lumen; omeprazole 60 mg/kg i.p. to inhibit acid secretion
Experimental: (§1) The bicarbonate secretion was evaluated in accordance with the methods of Aihara et al. (Aihara, E. et al. 2005. J. Pharmacol. Exp. Ther. 315: 423-432) and Kagawa et al. (Kagawa, S. et al. 2003. Digestive Diseases and Sciences 48: 1850-1856).
The bicarbonate secretion in the stomach was measured as described below. The abdomen of each of male SD rats was opened in the midline under anesthesia with urethane (1.25 g/kg/5 ml, intraperitoneal administration) to expose the stomach. The stomach was left to stand still in an ex-vivo chamber (Tamura Seisakusho; 3.1 cm^2) and perfused with physiological saline saturated with 100% O2 gas. In order to inhibit acid secretion, 60 mg/kg omeprazole was intraperitoneally administered. The bicarbonate secretion was continuously measured by dropping 2 mM HCl to a perfusate until an end point of pH 7.0 by employing a pH-stat method (TOA, AUT-501).
(§2) A drug was administered into the gastric or duodenal lumen after the bicarbonate secretion at the baseline had been measured for 30 minutes, and the bicarbonate secretion amount was measured every 10 minutes.

duodenum = assay: Bicarbonate secretion in the duodenum loop of anesthetized rats (pH-stat method); format: in vivo, male SD rats
Experimental: as §1
As for the bicarbonate secretion in the duodenum, the abdomen of each of male SD rats was opened under anesthesia, and a duodenum loop having a length of 1.7 cm from the pyloric ring of the stomach was prepared. The lumen of the loop was perfused with physiological saline saturated with 100% O2 gas (flow rate: 1 ml/min)
as §2
The abdomens of male SD rats were opened under anesthesia, and a duodenum loop having a length of 1.7 cm from the pyloric ring of the stomach was prepared. The lumen of the loop was perfused with physiological saline saturated with 100% O2 gas (flow rate: 1 ml/min).
After the bicarbonate secretion at the baseline had been measured for 30 minutes, distilled water for injection containing γ-EVG (100 mg/kg) or distilled water for injection (normal) was administered into the duodenal lumen, and the bicarbonate secretion amount was measured every 10 minutes.

[1] = tested on: histamine-induced gastric acid secretion; assay: Histamine-induced gastric acid secretion in the removed, perfused stomach (pH-stat method); parameters: species or system male ddY mice; settings: for histamine-induced gastric acid secretion: 100 μM histamine
Experimental: A model prepared in accordance with the method reported by Horie et al. (British Journal of Pharmacology 1994; 112: 87-92) was used as a model for histamine-induced gastric acid secretion. That is, 6-week-old male ddY mice were fasted for 18 hours, and the stomach was removed from each of the mice under anesthesia with urethane (1.25 g/kg/10 ml, intraperitoneal administration). A polyethylene cannula was inserted at each of the pyloric and esophageal sides of the stomach, and the stomach was left to stand still in an organ bath filled with a buffer (118.1 mM NaCl, 4.8 mM KCl, 1.0 mM KH2PO4, 16.0 mM Na2HPO4, 1.2 mM MgSO4, 0.65 mM CaCl2, and 31.6 mM glucose, saturated with 95% O2/5% CO2 gas, 37° C.). The intragastric pressure was kept at 15 cmH2O, and the lumen of the stomach was perfused with a buffer (135.8 mM NaCl, 4.8 mM KCl, 1.2 mM MgSO4, 1.3 mM CaCl2, and 31.6 mM glucose, pH 5.4, saturated with 95% O2/5% CO2 gas, 37° C.) at a flow rate of 1 ml/min
The acid secretion amount was continuously measured by dropping 10 mM NaOH to a perfusate until an end point of pH 5.4 by employing a pH-stat method (TOA, AUT-501). The intragastric acid secretion amount during no stimulation was measured for 30 minutes, and then the remove stomach left to stand still in the organ bath was treated with 100 μM histamine and cinacalcet (1.26, 12.6, and 126 μM). The gastric acid secretion amount was titrated for up to 90 minutes. The Dunnett's test was used as a statistical test for an effect of cinacalcet.
The gastric acid secretion was measured in accordance with the method of Example 2.

NSAID-induced enteritis = assay: NSAID (loxoprofen)-induced enteritis, damaged area in the small intestine; format: in vivo, rats; settings: 30 minutes before loxoprofen 60 mg/kg oral, 24 hours
Experimental: To non-fasting rats, distilled water for injection containing cinacalcet (1, 3, 10, and 100 mg/kg) or γ-EVG (100 mg/kg), or distilled water for injection (control) was orally administered. After 30 minutes, loxoprofen (60 mg/kg) was orally administered, and the rats were left to stand for 24 hours. 1 ml of 1% (w/w) Evans Blue dye was intravenously administered, and after 30 minutes, the rats were euthanized under deep ether anesthesia. The small intestine (from the duodenum to the ileum) of each of the rats was removed, then immersed in 2% formalin for 10 minutes so that the small intestine might be fixed from the serosal side, and incised from the opposite side of the mesentery, and the damaged area in the small intestine (mm^2) was measured with a dissecting microscope of 10 times power. The t-test or Dunnett's test was used for a statistical test and p<0.05 was considered significant.

With `N[C@@H](Cc1c[nH]cn1)C(=O)O` [His, histidine] the somatostatin secretion (gastric mucosal D cells; 10 mM) was “remarkably promoted”.

For `N[C@@H](CCC(=O)[O-])C(=O)[O-].[Na+].[Na+]` [MSG, sodium glutamate], the somatostatin secretion (gastric mucosal D cells; 60 mM MSG) was “remarkably inhibited”.

In the case of `N[C@@H](Cc1ccccc1)C(=O)O` [Phe, phenylalanine], the somatostatin secretion (gastric mucosal D cells; 10 mM) is reported as “remarkably promoted”.

For `C[C@@H](NCCCc1cccc(C(F)(F)F)c1)c1cccc2ccccc12.Cl` [cinacalcet, (R)—N-(3-(3-trifluoromethylphenyl)propyl)-1-(1-naphthyl)ethylamine hydrochloride], the “bicarbonate secretion in the stomach” value (stomach) was “promoted”, the “bicarbonate secretion in the duodenum” value (duodenum; 10 mg/kg administered into the duodenal lumen) was “promoted” and the “histamine-induced gastric acid secretion” value ([1]; 12.6 μM cinacalcet) was “inhibited”. For the same compound, the “histamine-induced gastric acid secretion” value ([1]; cinacalcet 1.26, 12.6 and 126 μM) was “inhibited histamine-induced gastric acid secretion dose-dependently”, the “histamine-induced gastric acid secretion” value ([1]; concentration of 126 μM) was “completely inhibited” and the somatostatin secretion (gastric mucosal D cells; 20 μM) was “remarkably promoted”. The “damaged area in the small intestine” value (NSAID-induced enteritis; 1, 3, 10 and 100 mg/kg oral) was “reduced the damaged area dose-dependently”.

With `NCCc1c[nH]cn1` [histamine] the gastric acid secretion ([1]; 100 μM histamine alone) was “promoted” and the acid secretion amount ([1]; 100 μM histamine stimulation, 0.5 to 0.8 nEq/10 min during no stimulation) was “about 3.2 nEq/10 min”.

In the case of [γGlu]-Val-Gly [γ-EVG], the “bicarbonate secretion in the duodenum” value (duodenum; 100 mg/kg administered into the duodenal lumen) is reported as “promoted”, the somatostatin secretion (gastric mucosal D cells; 20 μM) is reported as “remarkably promoted; also recorded: markedly promoted” and the “damaged area in the small intestine” value (NSAID-induced enteritis; 100 mg/kg oral) is reported as “reduced the damaged area”.
